The values below come from article PMC3416963 (Biochemistry, 2012).

The Ki is the dissociation constant of the complex between target and ligand, obtained from inhibition or displacement. Low values mean a stronger hold on the target, high ones a looser hold on the target.

The target of the experiment is LigI (Sphingobium sp. SYK-6, UniProt O87170). The experiment is described as follows: spectrophotometric PDC hydrolysis at […] nm. It counts as biochemical.
LigI, sequence (O87170 2-293): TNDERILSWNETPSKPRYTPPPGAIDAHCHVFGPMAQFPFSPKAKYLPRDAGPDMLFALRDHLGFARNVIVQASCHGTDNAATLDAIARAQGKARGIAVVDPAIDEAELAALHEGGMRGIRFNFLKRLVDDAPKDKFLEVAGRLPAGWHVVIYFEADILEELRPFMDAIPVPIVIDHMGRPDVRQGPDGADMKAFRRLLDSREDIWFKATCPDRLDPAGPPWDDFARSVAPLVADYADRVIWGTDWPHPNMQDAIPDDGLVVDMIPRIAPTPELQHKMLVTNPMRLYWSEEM

The molecule `O=C(O)c1ccnc(C(=O)O)c1` [compound 2, pyridine-2,4-dicarboxylic acid] gave a Ki of 75 ± 2 µM. For `O=C(O)c1cc(O)cc(C(=O)O)c1` [compound 5, 5-hydroxyisophthalic acid], the Ki was found to be 40 ± 3 µM.
